Data as given in PMC11061835, “Elucidating the Mechanism of Metabolism of Cannabichromene by Human Cytochrome P450s” (Journal of Natural Products, 2024).

Tests used:
[1] = system: BV2 microglial cells, stimulated with lipopolysaccharide (LPS); experiment: TNFα ELISA in LPS-stimulated BV2 cells; format: cell-based, mouse; conditions: 0.1, 1.0, 2.5, 5.0 μM
Protocol: (§1) BV2 cells were a gift from Dr. Bob McCusker, University of Illinois. They were cultured and maintained at 37 °C in a humidified atmosphere of 95% air and 5% CO2 in high-glucose Dulbecco’s modified Eagle’s (DMEM) medium (Cat No. 10-013-CV, Corning Life Sciences), supplemented with 5% heat-inactivated fetal bovine serum (FBS), streptomycin (100 μg/mL), and penicillin (100 units/mL). Stocks of all the minor cannabinoids were made in ethanol and stored at −80 °C and diluted as required before cell treatment. A final concentration of ethanol was maintained at 0.1% in the cell culture experiments.
(§2) BV-2 cells were plated at a density of 50 000 cells/well in a 24-well plate at 37 °C under controlled conditions. Cells were pretreated with the minor cannabinoids at various concentrations (0.1, 1.0, 2.5, 5.0 μM) for 4 h and then stimulated with LPS for 24 h. The culture medium was removed and saved for the determination of nitric oxide production through Cayman’s Griess assay. IL-6, TNFα, and Arginase 1 production was also determined utilizing collected medium. For the Greiss assay, in a 96-well plate, 100 μL of culture medium was used, and 50 μL of both Greiss reagent-1 and Greiss reagent-2 was added and incubated for 10 min. The absorbance was measured at 540 nm using a plate reader (SpectraMax iD5). The quantification was done using a calibration curve that was generated using the sodium nitrite standard obtained from Cayman Chemicals.
(§3) BV-2 cells were pretreated with the minor cannabinoids as described previously for 4 h in serum media (reduced to 5% FBS). Cells were stimulated with LPS (25 ng/mL in growth media) and allowed to incubate for 24 h. The culture medium was collected, and the concentrations of IL-6 (Cayman Chemicals), TNFα (ThermoFisher Scientific), and arginase 1 (ThermoFisher Scientific) cytokine expression were determined using specific monoclonal antibodies by ELISA kits as per manufacturer’s instructions.

[2] = system: BV2 microglial cells, stimulated with lipopolysaccharide (LPS); experiment: Nitric oxide determination (Griess assay) in LPS-stimulated BV2 cells; format: cell-based, mouse; conditions: for effect on NO release/production: 0.1, 1.0, 2.5, 5.0 μM, vs cells treated with LPS only
Protocol: as §1
First, cell viability of BV2 cells was assessed after treatment with cannabinoids, at various concentrations (0.1, 1.0, 2.5, 5.0 μM), utilizing Cayman’s MTT assay. […] Once viability was determined, we measured the production of pro-inflammatory markers such as nitric oxide (NO), interleukin 6 (IL-6), tumor necrosis factor alpha (TNFα), and arginase 1 (Arg1) after BV2 cells were treated with minor cannabinoids and then stimulated with lipopolysaccharide (LPS) to evoke an inflammatory response.
as §2

[3] = system: BV2 microglial cells, stimulated with lipopolysaccharide (LPS); experiment: IL-6 ELISA in LPS-stimulated BV2 cells; format: cell-based, mouse; conditions: for effect on IL-6 levels: 0.1, 1.0, 2.5, 5.0 μM, LPS-stimulated
Protocol: as §1, §2, §3

[4] = In vivo metabolism of CBC, mouse blood plasma (LC-MS/MS); parameters: species or system mice; conditions: mice, CBC 20 mg/kg IV or IP, plasma at 0.5 and 2 h
Protocol: CBC was dissolved in ethanol, and an aliquot was then mixed with Tween-80. Ethanol was removed by evaporation. The mixture was then reconstituted with PBS to a 6% final concentration of Tween-80. C 57BL/6J female mice, age 8–10 weeks, were injected with 20 mg/kg CBC or vehicle intravenously (IV, n = 3) via the tail vein or intraperitoneally (IP, n = 3). Blood samples were collected terminally by cardiac puncture into heparin-coated syringes at 0.5 and 2 h after CBC treatment and transferred into tubes. The tubes were then centrifuged, and plasma samples were removed and stored at −80 °C.
200 μL of blood plasma from each sample was taken into a glass tube, and 500 μL of extraction solvent (hexane:ethyl acetate 80:20 v/v) was added. The remaining extraction steps are similar to those used for CBC metabolite extraction from CYPs as mentioned earlier.
Samples were analyzed with the 5500 QTRAP LC/MS/MS system (Sciex, Framingham, MA) in the Metabolomics Lab of Roy J. Carver Biotechnology Center, University of Illinois at Urbana–Champaign. Software Analyst 1.7.1 was used for data acquisition and analysis. The 1200 series HPLC system (Agilent Technologies, Santa Clara, CA) includes a degasser, an autosampler, and a binary pump. The LC separation was performed on a Phenomenex Gemini C6-phenyl column (2 × 100 mm, 3 μm) with mobile phase A (0.1% formic acid in water) and mobile phase B (0.1% formic acid in acetonitrile). The flow rate was 0.2 mL/min. The linear gradient was as follows: 0–2 min, 95% A; 10 min, 50% A; 20–25 min, 0% A; 25.1–31 min, 95% A. The autosampler was set at 10 °C. The injection volume was 5 μL. Mass spectra were acquired under positive electrospray ionization (ESI) with the ion spray voltage of +5000 V. The source temperature was 400 °C. The curtain gas, ion source gas 1, and ion source gas 2 were 325, 65, and 55 psi, respectively. Multiple reaction monitoring (MRM) was used for quantitation: CBC m/z 315.1 → m/z 135.0; 1-acetoxy-6′,7′-dihydroxy-CBC (JM-I-73) m/z 349.1→ m/z 193.0; 1″-hydroxy-CBC (JM-I-66) m/z 331.1→ m/z 275.1; 6′,7′-epoxy-CBC (JM-I-27) m/z 331.1→ m/z 193.0; 7′,10′-ene-6′-hydroxy-CBC (JM-I-30) m/z 331.1→ m/z 193.0; 8′-hydroxy-CBC (JM-I-32) […]→ m/z 77.0. Internal standard EET-EA-d11 was monitored at m/z 375.2→ m/z 357.1.

[5] = system: recombinant CYPs: CYP2J2, CYP2C8, CYP2C9, CYP2D6, and CYP3A4; experiment: CBC metabolism by recombinant CYPs (all five); format: in vitro ADME, human; conditions: lipid-constituted system with CPR, NADPH
Protocol: (§4) To study the kinetics of CBC metabolism, concentration dependent metabolism of CBC was carried out in the presence of various CYPs using the following procedure. CYP2J2, CYP2C8, CYP2D6, CYP2C9, and CYP3A4 (final concentration 0.5 μM) were initially dissolved in lipid containing POPC:POPS (8:2 v/v) followed by addition of CPR (final concentration 0.6 μM) in 0.1 M potassium phosphate buffer (pH 7.4). CBC (5–80 μM) was added and incubated at 37 °C for 10 min. The reaction was triggered by NADPH and extracted using the exact sample protocol as mentioned in the HLM section.
(§5) Samples were analyzed with the 5500 QTRAP LC/MS/MS system (Sciex, Framingham, MA) in the Metabolomics Lab of Roy J. Carver Biotechnology Center, University of Illinois at Urbana–Champaign. Software Analyst 1.7.1 was used for data acquisition and analysis. The 1200 series HPLC system (Agilent Technologies, Santa Clara, CA) includes a degasser, an autosampler, and a binary pump. […] Multiple reaction monitoring (MRM) was used for quantitation: CBC m/z 315.1 → m/z 135.0; 1-acetoxy-6′,7′-dihydroxy-CBC (JM-I-73) m/z 349.1→ m/z 193.0; 1″-hydroxy-CBC (JM-I-66) m/z 331.1→ m/z 275.1; 6′,7′-epoxy-CBC (JM-I-27) m/z 331.1→ m/z 193.0; 7′,10′-ene-6′-hydroxy-CBC (JM-I-30) m/z 331.1→ m/z 193.0; 8′-hydroxy-CBC (JM-I-32) […]→ m/z 77.0. Internal standard EET-EA-d11 was monitored at m/z 375.2→ m/z 357.1.

TRPV1 = system: TRPV1; parameters: method as in PMID 30697147; conditions: read-out: agonism toward TRPV1; cited from earlier work
TRPV2 = system: TRPV2; parameters: method as in PMID 30697147; conditions: read-out: agonism toward TRPV2; cited from earlier work
CYP2D6 = CYP2D6 (Homo sapiens, UniProt P10635); experiment: CBC metabolism by CYP2D6; format: in vitro ADME; parameters: His-tag; made in house; host or cells: E. coli DH-5α with pTGro7 plasmid (CYP)
Chain of CYP2D6 (P10635 whole entry): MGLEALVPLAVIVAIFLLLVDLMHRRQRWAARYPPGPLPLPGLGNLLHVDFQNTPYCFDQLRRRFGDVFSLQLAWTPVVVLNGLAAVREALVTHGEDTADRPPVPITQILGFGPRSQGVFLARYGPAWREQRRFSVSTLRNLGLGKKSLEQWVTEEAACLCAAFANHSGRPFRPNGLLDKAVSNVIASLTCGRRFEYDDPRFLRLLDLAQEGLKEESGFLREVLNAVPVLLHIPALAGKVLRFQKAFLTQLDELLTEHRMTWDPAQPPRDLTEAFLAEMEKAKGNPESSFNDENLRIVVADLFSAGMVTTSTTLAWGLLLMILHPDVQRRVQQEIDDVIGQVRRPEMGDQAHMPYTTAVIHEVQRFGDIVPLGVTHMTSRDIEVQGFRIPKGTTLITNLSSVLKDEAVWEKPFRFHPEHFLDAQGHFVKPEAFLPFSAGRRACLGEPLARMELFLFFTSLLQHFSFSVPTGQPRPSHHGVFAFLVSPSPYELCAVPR
Chain of CYP2D6 (P16435 whole entry partner): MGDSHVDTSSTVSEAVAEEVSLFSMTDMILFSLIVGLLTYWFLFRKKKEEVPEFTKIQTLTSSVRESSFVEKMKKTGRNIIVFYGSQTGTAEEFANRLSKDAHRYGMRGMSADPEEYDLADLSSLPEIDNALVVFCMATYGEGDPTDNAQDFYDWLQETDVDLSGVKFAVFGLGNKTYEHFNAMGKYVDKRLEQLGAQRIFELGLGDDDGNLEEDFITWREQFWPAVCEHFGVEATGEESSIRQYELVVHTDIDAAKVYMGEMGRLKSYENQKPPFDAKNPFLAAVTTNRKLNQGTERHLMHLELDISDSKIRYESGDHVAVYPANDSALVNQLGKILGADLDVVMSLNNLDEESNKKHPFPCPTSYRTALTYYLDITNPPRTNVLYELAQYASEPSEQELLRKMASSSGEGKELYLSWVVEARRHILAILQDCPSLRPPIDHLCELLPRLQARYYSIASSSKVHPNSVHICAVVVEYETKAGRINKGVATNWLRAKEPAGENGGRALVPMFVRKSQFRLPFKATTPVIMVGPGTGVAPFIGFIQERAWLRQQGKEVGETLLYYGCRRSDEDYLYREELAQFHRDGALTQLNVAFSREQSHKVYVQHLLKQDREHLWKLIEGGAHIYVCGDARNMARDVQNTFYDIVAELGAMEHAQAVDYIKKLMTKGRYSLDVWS
Protocol: as §4, §5

[6] = system: BV2 microglial cells, stimulated with lipopolysaccharide (LPS); experiment: Arginase 1 ELISA in LPS-stimulated BV2 cells; format: cell-based, mouse; conditions: 0.1, 1.0, 2.5, 5.0 μM
Protocol: as §1
as §2, with “For the Greiss assay, in a 96-well plate, 100 μL of culture medium was used, and 50 μL of both Greiss reagent-1 and Greiss reagent-2 was added and incubated for 10 min.” left out, “Chemicals. […]” for “Chemicals.”

CYP3A4 = CYP3A4 (Homo sapiens, UniProt P08684); experiment: CBC metabolism by CYP3A4; format: in vitro ADME; parameters: His-tag; made in house; host or cells: E. coli DH-5α with pTGro7 plasmid (CYP)
Chain of CYP3A4 (P08684 whole entry): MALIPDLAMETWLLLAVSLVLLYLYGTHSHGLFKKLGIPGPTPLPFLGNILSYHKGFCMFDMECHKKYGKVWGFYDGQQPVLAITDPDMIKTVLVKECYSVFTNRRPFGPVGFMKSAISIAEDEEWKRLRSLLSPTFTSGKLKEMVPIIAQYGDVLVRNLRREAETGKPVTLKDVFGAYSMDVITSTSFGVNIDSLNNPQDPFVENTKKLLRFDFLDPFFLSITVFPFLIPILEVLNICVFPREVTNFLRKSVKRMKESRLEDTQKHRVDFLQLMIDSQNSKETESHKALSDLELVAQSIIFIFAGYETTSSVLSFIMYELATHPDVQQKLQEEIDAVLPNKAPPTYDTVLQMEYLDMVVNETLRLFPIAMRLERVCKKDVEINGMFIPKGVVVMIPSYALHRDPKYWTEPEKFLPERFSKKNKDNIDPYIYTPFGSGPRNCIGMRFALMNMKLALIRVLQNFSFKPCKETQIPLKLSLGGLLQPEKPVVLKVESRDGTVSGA
Chain of CYP3A4 (P16435 whole entry partner): as the sequence (P16435 whole entry partner) above
Protocol: as §4, §5

| Structure (SMILES) | effect on TNFα production [1] | effect on NO release/production [2] | effect on IL-6 levels [3] | detection as product of CBC metabolism in mouse plasma [4] | EC50 (TRPV1) | EC50 (TRPV2) | effect on Arg-1 production [6] | formation as CBC metabolite (CYP3A4) | other results |
| --- | --- | --- | --- | --- | --- | --- | --- | --- | --- |
| C=C(C)C(O)CCC1(C)C=Cc2c(O)cc(CCCCC)cc2O1 (centres unmarked) [7′,10′-ene-6′-hydroxy-CBC] | Concentration dependent reduction | concentration-dependent reduction | Concentration dependent reduction | – | – | – | – | – | – |
| CCCCCc1cc(O)c2c(c1)OC(C)(CCC(O)C(C)(C)O)C=C2 (centres unmarked) [6′,7′-dihydroxy-CBC] | Concentration dependent reduction | concentration-dependent reduction | Concentration dependent reduction | detected | – | – | – | – | reduction of NO level ([2]; 5 μM, LPS-stimulated BV2 cells): ~50%; reduction of IL-6 level ([3]; 5 μM, LPS-stimulated BV2 cells): ~50%; detection as CBC metabolite in the presence of recombinant CYPs [5]: not detected |
| C=C(C)[C@@H]1CCC(C)=C[C@H]1c1c(O)cc(CCCCC)cc1O [CBD, cannabidiol] | – | – | – | – | ~40 µM | ~40 µM | – | – | – |
| CCCCC(O)c1cc(O)c2c(c1)OC(C)(CCC=C(C)C)C=C2 (centres unmarked) [1″-hydroxy-CBC] | Concentration dependent reduction | – | Concentration dependent reduction | not detected | – | – | increases in a concentration dependent manner | not detected | detection as CBC metabolite (CYP2D6): not detected |
| CCCCCc1cc(O)c2c(c1)OC(C)(CCC1OC1(C)C)C=C2 (centres unmarked) [6′,7′-epoxy-CBC] | – | – | – | detected | – | – | increases in a concentration dependent manner | exclusively produces | – |
| CCCCCc1cc(O)c(C/C=C(\C)CCC=C(C)C)c(O)c1 [CBG, cannabigerol] | – | – | – | – | ~33 µM | ~73 µM | – | – | – |
